According to PubChem BioAssay AID2060510 (Molecular Pharmacology Branch, DTP, NCI, 2025):

Tested on: 439559-082-T-J2-PDC spheroids viability
Test: Anticancer human tumor 439559-082-T-J2-PDC patient-derived colon adenocarcinoma cell line growth inhibition [GQUAD]
Conditions: for IC50: curve of first compound; for viability, T/C: stronger effect = lower value
How it was run: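 Multi-cell-type spheroids of tumor cells with HUVEC and mesenchymal stem cells, treated with drug combinations. Concentrations descend in half-log steps from near clinical Cmax, or from 10 microM where Cmax is unknown; viability read-out.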

[1] = second compound 0.0316 µM, first compound 0.0316 µM
[2] = second compound 0.0316 µM, first compound 0.1 µM
[3] = second compound 0.0316 µM, first compound 0.316 µM
[4] = second compound 0.0316 µM, first compound 1 µM
[5] = second compound 0.0316 µM, first compound 3.16 µM
[6] = second compound 0.0316 µM, first compound 10 µM
[7] = second compound 0.1 µM, first compound 0.0316 µM
[8] = second compound 0.1 µM, first compound 0.1 µM
[9] = second compound 0.1 µM, first compound 0.316 µM
[10] = second compound 0.1 µM, first compound 1 µM
[11] = second compound 0.1 µM, first compound 3.16 µM
[12] = second compound 0.1 µM, first compound 10 µM
[13] = second compound 0.316 µM, first compound 0.0316 µM
[14] = second compound 0.316 µM, first compound 0.1 µM
[15] = second compound 0.316 µM, first compound 0.316 µM
[16] = second compound 0.316 µM, first compound 1 µM
[17] = second compound 0.316 µM, first compound 3.16 µM
[18] = second compound 0.316 µM, first compound 10 µM
[19] = second compound 1 µM, first compound 0.0316 µM
[20] = second compound 1 µM, first compound 0.1 µM
[21] = second compound 1 µM, first compound 0.316 µM
[22] = second compound 1 µM, first compound 1 µM
[23] = second compound 1 µM, first compound 3.16 µM
[24] = second compound 1 µM, first compound 10 µM
[25] = second compound 3.16 µM, first compound 0.0316 µM
[26] = second compound 3.16 µM, first compound 0.1 µM
[27] = second compound 3.16 µM, first compound 0.316 µM
[28] = second compound 3.16 µM, first compound 1 µM
[29] = second compound 3.16 µM, first compound 3.16 µM
[30] = second compound 3.16 µM, first compound 10 µM
[31] = second compound 10 µM, first compound 0.0316 µM
[32] = second compound 10 µM, first compound 0.1 µM
[33] = second compound 10 µM, first compound 0.316 µM
[34] = second compound 10 µM, first compound 1 µM
[35] = second compound 10 µM, first compound 3.16 µM
[36] = second compound 10 µM, first compound 10 µM
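Note: spheroids exposed to the agents for 7 days before readout.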
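Throughout, for viability, T/C: percent of luminescence signal in DMSO vehicle wells taken as 100% viability.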

CC(C)(O)C1CCC(Nc2ccc3ncc(-c4cccc(C(F)(F)F)c4)n3n2)CC1 (centres undefined) + CN(C)c1ccc(Nc2c3ccc(NC(=O)CCN4CCCC4)cc3nc3cc(NC(=O)CCN4CCCC4)ccc23)cc1
IC50 (second compound 0.0316 µM): 1600 nM
IC50 (second compound 0.1 µM): 1650 nM
IC50 (second compound 0.316 µM): 1820 nM
IC50 (second compound 1 µM): 1660 nM
IC50 (second compound 3.16 µM): 1780 nM
IC50 (second compound 10 µM): 1580 nM
viability, T/C [1]: 92.7%
viability, T/C [2]: 94.7%
viability, T/C [3]: 94%
viability, T/C [4]: 78.1%
viability, T/C [5]: 8.9%
viability, T/C [6]: 9%
viability, T/C [7]: 117%
viability, T/C [8]: 111%
viability, T/C [9]: 108%
viability, T/C [10]: 77.5%
viability, T/C [11]: 13.9%
viability, T/C [12]: 10.1%
viability, T/C [13]: 104%
viability, T/C [14]: 96.9%
viability, T/C [15]: 91.8%
viability, T/C [16]: 90.3%
viability, T/C [17]: 12.7%
viability, T/C [18]: 10.6%
viability, T/C [19]: 98.8%
viability, T/C [20]: 101%
viability, T/C [21]: 107%
viability, T/C [22]: 82.1%
viability, T/C [23]: 7.17%
viability, T/C [24]: 11.9%
viability, T/C [25]: 98.8%
viability, T/C [26]: 101%
viability, T/C [27]: 103%
viability, T/C [28]: 89%
viability, T/C [29]: 7.84%
viability, T/C [30]: 13.6%
viability, T/C [31]: 100%
viability, T/C [32]: 110%
viability, T/C [33]: 109%
viability, T/C [34]: 77.1%
viability, T/C [35]: 9.39%
viability, T/C [36]: 7.34%

CCCS(=O)(=O)Nc1ccc(F)c(C(=O)c2c[nH]c3ncc(-c4ccc(Cl)cc4)cc23)c1F + CN(C)c1ccc(Nc2c3ccc(NC(=O)CCN4CCCC4)cc3nc3cc(NC(=O)CCN4CCCC4)ccc23)cc1
IC50 (second compound 0.0316 µM): > 10000 nM
IC50 (second compound 0.1 µM): > 10000 nM
IC50 (second compound 0.316 µM): 9610 nM
IC50 (second compound 1 µM): > 10000 nM
IC50 (second compound 3.16 µM): 9150 nM
IC50 (second compound 10 µM): > 10000 nM
viability, T/C [1]: 118%
viability, T/C [2]: 93.8%
viability, T/C [3]: 100%
viability, T/C [4]: 92.4%
viability, T/C [5]: 116%
viability, T/C [6]: 59.5%
viability, T/C [7]: 90.5%
viability, T/C [8]: 101%
viability, T/C [9]: 96.7%
viability, T/C [10]: 87.9%
viability, T/C [11]: 103%
viability, T/C [12]: 50.1%
viability, T/C [13]: 98.4%
viability, T/C [14]: 102%
viability, T/C [15]: 94.1%
viability, T/C [16]: 102%
viability, T/C [17]: 113%
viability, T/C [18]: 48.1%
viability, T/C [19]: 91.9%
viability, T/C [20]: 108%
viability, T/C [21]: 103%
viability, T/C [22]: 108%
viability, T/C [23]: 107%
viability, T/C [24]: 54.2%
viability, T/C [25]: 96%
viability, T/C [26]: 101%
viability, T/C [27]: 108%
viability, T/C [28]: 101%
viability, T/C [29]: 112%
viability, T/C [30]: 45.5%
viability, T/C [31]: 90.9%
viability, T/C [32]: 103%
viability, T/C [33]: 99.8%
viability, T/C [34]: 105%
viability, T/C [35]: 108%
viability, T/C [36]: 50.5%
